In article PMC4906374, “Global Profiling and Inhibition of Protein Lipidation in Vector and Host Stages of the Sleeping Sickness Parasite Trypanosoma brucei” (ACS Infectious Diseases, 2016):

Molecular target: T1, TbNMT (Trypanosoma brucei, UniProt Q388H8)
T1 construct: gene Tb10.61.2550; native full-length enzyme in intact bloodstream form parasites; not purified
T1 sequence (Q388H8 1-446): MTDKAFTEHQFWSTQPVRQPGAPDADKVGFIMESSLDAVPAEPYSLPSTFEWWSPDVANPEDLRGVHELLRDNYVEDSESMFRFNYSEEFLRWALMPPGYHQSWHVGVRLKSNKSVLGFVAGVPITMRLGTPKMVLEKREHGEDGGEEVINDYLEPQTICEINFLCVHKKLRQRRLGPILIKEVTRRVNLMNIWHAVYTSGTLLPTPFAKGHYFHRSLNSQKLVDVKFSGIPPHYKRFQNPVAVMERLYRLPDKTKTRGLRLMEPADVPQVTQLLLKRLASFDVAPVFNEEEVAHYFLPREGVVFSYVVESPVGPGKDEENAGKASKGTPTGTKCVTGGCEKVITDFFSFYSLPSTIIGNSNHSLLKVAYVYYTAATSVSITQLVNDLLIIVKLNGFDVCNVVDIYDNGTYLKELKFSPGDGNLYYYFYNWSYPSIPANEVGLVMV
Assay: in-gel fluorescence of YnMyr tagging (CuAAC, NaOH-treated gels) in intact BSF parasites
Format: cell-based
Details: read-out: TC50 (tagging-IC50); 100 uM YnMyr, 1 h inhibitor pretreatment, 8 h labelling, 37 °C; whole-parasite value, not isolated enzyme

`Cc1noc(C)c1NS(=O)(=O)c1c(Cl)cc(-c2ccnc(N3CCNCC3)c2)cc1Cl` [compound 2, inhibitor 2] gave an IC50 of 2570 ± 40 nM.
